In paper PMC12041767 (Journal of immunology (Baltimore, Md. : 1950), 2025):
Where two headings read alike, the source gives them in different places.

Tests used:
[1] = biological target: HLA-E*01:03 (Homo sapiens, UniProt P13747); assay type: binding; settings: tested at least two times, median, Figure 1
[2] = tested on: TCR KK50.4; assay type: cell-based; settings: 100 μM peptide, median, n=3 with two technical replicates, Figure 3B, C
[3] = tested on: TCR 6; assay: HLA-E*01:03 tetramer (TM) staining of TCR 6 transduced Jurkat cells; settings: for Interaction of thermal exchanged HLA-E TM/peptide complex with TCR 6, in words: thermal exchanged HLA-E*01:03 TM staining on Jurkat TCR 6 cells, tested once, Figure 2C-E
[4] = biological target: T1, NKG2A/CD94 (Homo sapiens, UniProt P26715+Q13241); settings: cited from earlier work
[5] = tested on: primary NKG2C+ NK cells; settings: stimulation with HLA-E/peptide presenting cells, compared to other position 8 variants from clinical CMV isolates; cited from earlier work
[6] = tested on: TCR KK50.4; assay: HLA-E*01:03 tetramer (TM) staining of TCR KK50.4 transduced Jurkat cells; settings: for Interaction of thermal exchanged HLA-E TM/peptide complex with TCR KK50.4, in words: thermal exchanged HLA-E*01:03 TM staining on Jurkat TCR KK50.4 cells, tested once, Figure 2C
[7] = biological target: T1, NKG2A/CD94; assay type: binding
[8] = UV exchange 1 hr at 4°C, ELISA absorbance 450 nm
[9] = S/P relative to positive control […] or […]
[10] = conventional HLA-E TMs folded with wildtype peptide, Figure 2B

T1 sequence (P26715 whole entry): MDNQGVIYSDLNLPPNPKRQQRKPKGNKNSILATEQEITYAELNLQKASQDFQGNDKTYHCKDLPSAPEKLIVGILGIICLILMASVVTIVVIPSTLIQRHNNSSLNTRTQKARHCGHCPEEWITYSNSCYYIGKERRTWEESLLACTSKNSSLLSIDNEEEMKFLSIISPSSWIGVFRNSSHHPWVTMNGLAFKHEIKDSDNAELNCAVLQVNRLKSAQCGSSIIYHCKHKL
T1 sequence (Q13241 whole entry): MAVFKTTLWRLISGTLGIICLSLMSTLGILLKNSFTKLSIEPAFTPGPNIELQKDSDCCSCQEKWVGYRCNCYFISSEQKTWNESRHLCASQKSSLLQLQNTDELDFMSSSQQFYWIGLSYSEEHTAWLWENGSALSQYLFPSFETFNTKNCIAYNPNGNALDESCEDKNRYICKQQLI

Q: With VMAPRTPIL as the sequence, how does the “Peptide binding affinity for HLA-E*01:03 (signal to positive, S/P, ratio), in words” value [1, 8] read?
A: strong binders (The S/P thresholds to define binders or strong binders are 0.08 and 0.18, respectively)

Q: For VLAPRRLLL [VLAPRTLLL Arg 6], which “Peptide binding affinity for HLA-E*01:03 (signal to positive, S/P, ratio), in words” value [1, 9] is on record?
A: could not bind

Q: For VLAPRTLLA [VLAPRTLLL Ala 9], which “Peptide binding affinity for HLA-E*01:03 (signal to positive, S/P, ratio), in words” value [1, 9] is on record?
A: could not bind

Q: With VLAPRDLLL [VLAPRTLLL Asp 6] as the sequence, how does the “Peptide binding affinity for HLA-E*01:03 (signal to positive, S/P, ratio), in words” value [1, 9] read?
A: could not bind

Q: With VMAPRTLIF as the sequence, how does the “TCR KK50.4 triple reporter activation, in words” value [2] read?
A: still induced TCR KK50.4 activation

Q: Which “Peptide binding affinity for HLA-E*01:03 (signal to positive, S/P, ratio), in words” value [1, 9] does the source give for VLAPRTRLL [VLAPRTLLL Arg 7] here?
A: could not bind

Q: With VLAPRTLGL [VLAPRTLLL Gly 8] as the sequence, how does the “Peptide binding affinity for HLA-E*01:03 (signal to positive, S/P, ratio), in words” value [1, 9] read?
A: could not bind

Q: Which results are given for VMAPRPLIL?
A: Peptide binding affinity for HLA-E*01:03 (signal to positive, S/P, ratio), in words [1, 8]: strong binders (The S/P thresholds to define binders or strong binders are 0.08 and 0.18, respectively); Interaction of thermal exchanged HLA-E TM/peptide complex with TCR 6, in words [3]: interacted

Q: Which “Peptide binding affinity for HLA-E*01:03 (signal to positive, S/P, ratio), in words” value [1, 9] does the source give for VLAPRTDLL [VLAPRTLLL Asp 7] here?
A: could not bind

Q: For VLAPRPLLL [VLAPRTLLL Pro 6], which “Peptide binding affinity for HLA-E*01:03 (signal to positive, S/P, ratio), in words” value [1, 9] is on record?
A: strong binders (key: The S/P thresholds to define binders or strong binders are 0.08 and 0.18, respectively; The S/P thresholds to define binders or strong binders are 0.08 and 0.18, respectively)

Q: For VMAPRTLFL, which “Level of NKG2A/CD94 signaling among VL9-peptides” value [4] is on record?
A: highest level of NKG2A/CD94 signaling

Q: And the “CD107a expression and cytokine secretion of primary NKG2C+ NK cells” value [5]?
A: highest level of CD107a expression and cytokine secretion

Q: Which “Peptide binding affinity for HLA-E*01:03 (signal to positive, S/P, ratio), in words” value [1, 9] does the source give for VLAPRTPLL [VLAPRTLLL Pro 7] here?
A: strong binders (key: The S/P thresholds to define binders or strong binders are 0.08 and 0.18, respectively; The S/P thresholds to define binders or strong binders are 0.08 and 0.18, respectively)

Q: Which “Interaction of thermal exchanged HLA-E TM/peptide complex with TCR 6, in words” value [3] does the source give for VMAPRALIL here?
A: interacted

Q: For VMAPRTLIW, which “Interaction of thermal exchanged HLA-E TM/peptide complex with TCR KK50.4, in words” value [6] is on record?
A: recognized by TCR KK50.4

Q: What about the “Interaction of thermal exchanged HLA-E TM/peptide complex with TCR 6, in words” value [3] of the same sequence?
A: not TCR 6

Q: With VLAPRTLLL [reference compound] as the sequence, how does the “Interaction of conventional HLA-E TM with NKG2A/CD94, in words” value [7] read?
A: can interact

Q: And the “Interaction of conventional HLA-E TM with TCR KK50.4, in words” value [6, 10]?
A: could only interact with the HLA-E/[…] complex

Q: And the “Peptide binding affinity for HLA-E*01:03 (signal to positive, S/P, ratio), in words” value [1, 9]?
A: high affinity

Q: What about the “Interaction of conventional HLA-E TM with TCR 6, in words” value [3, 10] of the same sequence?
A: can interact

Q: For VMAARTLIL, which “Interaction of thermal exchanged HLA-E TM/peptide complex with TCR KK50.4, in words” value [6] is on record?
A: interacted
